The text below walks through data of ChEMBL document CHEMBL1140062, “Inactivation of NF-kappaB components by covalent binding of (-)-dehydroxymethylepoxyquinomicin to specific cysteine residues” (J Med Chem, 2008).

The structures appear in SMILES notation. Active and inactive are the calls of the source. No cut-off for these calls is given here.

Data set [1] in a line: Inhibition of DNA binding activity of NF-kappaB p50 C62S mutant by MALDI-TOF MS analysis.
Data set [2] concerns Transcription factor p65 (Homo sapiens), Q04206 [C38S]. The data set can be described thus: Inhibition of TNF-alpha-stimulated DNA binding activity of NF-kappaB p65 C38S mutant expressed in HeLa cells at 10 ug/mL hrs by EMSA. It counts as cell-based.
Data set [3] can be described thus: Inhibition of DNA binding activity of NF-kappaB p50 C144S mutant by MALDI-TOF MS analysis.
Data set [4] has as its system HeLa. The data set can be described thus: Decrease of TNF-alpha-stimulated wild type NF-kappaB p65 level in human HeLa cell nucleus at 10 ug/mL by Western blot analysis. Type of data set: functional, cell-based.
The test system of data set [5] is Transcription factor p65 (Homo sapiens), Q04206 [C38S]. As to the kind of experiment: Inhibition of DNA binding activity of NF-kappaB p65 (1-325) C38S mutant by EMSA.
Data set [6] deals with HeLa. The data set can be described thus: Decrease of TNF-alpha-stimulated NF-kappaB p65 C38S mutant level in human HeLa cell nucleus at 10 ug/mL by Western blot analysis. Type of data set: functional, cell-based.
A short description of data set [7]: Binding affinity to NF-kappaB p65 (1-325) Rel subunit at 100 uM by surface plasmon resonance analysis.
Data set [8] concerns Transcription factor p65 (Homo sapiens), Q04206 [C38S]. The data set can be described thus: Inhibition of DNA binding activity of full-length recombinant NF-kappaB p65 Rel subunit C38S mutant at 10 uM by EMSA.
A short description of data set [9]: Inhibition of DNA binding activity of NF-kappaB p65 (1-325) Rel subunit at 20 uM by EMSA.
Data set [10] addresses T1, Nuclear factor NF-kappa-B p105 subunit (Homo sapiens) (UniProt P19838).
T1 sequence (whole entry): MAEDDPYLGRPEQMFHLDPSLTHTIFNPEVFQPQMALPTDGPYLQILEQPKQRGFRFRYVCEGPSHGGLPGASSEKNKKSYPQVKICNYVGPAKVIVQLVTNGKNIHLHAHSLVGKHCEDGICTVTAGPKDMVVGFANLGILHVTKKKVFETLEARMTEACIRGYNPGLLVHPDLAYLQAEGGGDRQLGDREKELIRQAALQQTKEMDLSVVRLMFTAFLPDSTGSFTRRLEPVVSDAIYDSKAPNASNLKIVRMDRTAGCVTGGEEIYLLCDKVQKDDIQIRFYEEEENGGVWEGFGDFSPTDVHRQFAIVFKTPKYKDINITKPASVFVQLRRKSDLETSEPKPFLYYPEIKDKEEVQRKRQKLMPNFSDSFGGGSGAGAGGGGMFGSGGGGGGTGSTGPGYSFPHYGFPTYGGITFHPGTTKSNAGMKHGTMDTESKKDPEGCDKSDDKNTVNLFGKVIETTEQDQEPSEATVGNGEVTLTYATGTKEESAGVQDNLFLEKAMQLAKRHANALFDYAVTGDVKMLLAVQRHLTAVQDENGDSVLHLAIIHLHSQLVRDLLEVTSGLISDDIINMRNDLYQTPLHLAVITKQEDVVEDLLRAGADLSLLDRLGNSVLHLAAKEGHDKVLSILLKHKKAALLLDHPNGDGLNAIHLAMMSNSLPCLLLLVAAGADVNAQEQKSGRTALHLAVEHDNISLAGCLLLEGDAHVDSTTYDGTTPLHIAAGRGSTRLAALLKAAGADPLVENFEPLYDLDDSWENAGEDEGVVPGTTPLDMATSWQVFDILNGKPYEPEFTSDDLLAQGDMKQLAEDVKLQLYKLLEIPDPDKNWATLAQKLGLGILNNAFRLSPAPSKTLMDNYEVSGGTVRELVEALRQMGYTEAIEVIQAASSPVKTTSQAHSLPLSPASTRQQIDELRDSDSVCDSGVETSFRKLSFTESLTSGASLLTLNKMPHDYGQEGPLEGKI
The data set can be described thus: Inhibition of DNA binding activity of wild type NF-kappaB p50.

Data set [11] is described as follows: Inhibition of DNA binding activity of wild type NF-kappaB cRel (1-307).
Data set [12] relates to HeLa. As to the kind of experiment: Decrease of TNF-alpha-stimulated endogenous NF-kappaB p65 level in human HeLa cell nucleus at 10 ug/mL by Western blot analysis. Type of data set: functional, cell-based.
The test system of data set [13] is Transcription factor p65 (Homo sapiens), Q04206 [C120S]. As to the kind of experiment: Inhibition of DNA binding activity of NF-kappaB p65 (1-325) C120S mutant by EMSA.
The target in a further data set is Albumin (Bos taurus, UniProt P02769). As to the kind of experiment: Binding affinity to bovine serum albumin. It counts as ADME. Particulars: cattle, isolated protein.
Data set [14] has as its target T1, Nuclear factor NF-kappa-B p105 subunit (Homo sapiens). As to the kind of experiment: Inhibition of DNA binding activity of wild type NF-kappaB p50 by MALDI-TOF MS analysis.
The target in data set [15] is Transcription factor p65 (Homo sapiens) (UniProt Q04206). The data set can be described thus: Inhibition of DNA binding activity of full-length recombinant NF-kappaB p65 Rel subunit at 10 uM by EMSA.
Data set [16] is described as follows: Inhibition of DNA binding activity of NF-kappaB p50 C62S mutant.
The subject of data set [17] is T2, Proto-oncogene c-Rel (Homo sapiens), Q04864 [C27S].
T2 sequence (whole entry): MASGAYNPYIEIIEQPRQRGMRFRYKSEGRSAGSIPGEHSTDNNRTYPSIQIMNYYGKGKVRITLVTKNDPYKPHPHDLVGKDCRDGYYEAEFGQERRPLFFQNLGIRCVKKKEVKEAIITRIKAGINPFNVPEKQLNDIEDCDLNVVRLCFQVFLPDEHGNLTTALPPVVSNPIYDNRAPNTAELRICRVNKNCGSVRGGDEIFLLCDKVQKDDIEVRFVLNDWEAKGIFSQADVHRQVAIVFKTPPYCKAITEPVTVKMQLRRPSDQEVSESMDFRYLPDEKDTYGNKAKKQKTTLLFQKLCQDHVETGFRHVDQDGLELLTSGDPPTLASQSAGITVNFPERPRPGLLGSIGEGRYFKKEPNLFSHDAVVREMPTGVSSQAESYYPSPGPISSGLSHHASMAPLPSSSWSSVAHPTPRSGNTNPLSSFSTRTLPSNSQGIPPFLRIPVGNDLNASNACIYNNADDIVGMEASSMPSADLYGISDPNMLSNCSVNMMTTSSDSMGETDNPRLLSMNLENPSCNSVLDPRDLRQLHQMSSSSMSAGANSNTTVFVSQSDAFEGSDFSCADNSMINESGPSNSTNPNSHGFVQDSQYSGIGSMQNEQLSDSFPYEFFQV
The data set can be described thus: Inhibition of DNA binding activity of NF-kappaB cRel (1-307) C27S mutant by MALDI-TOF MS analysis.

Data set [18] shares this test system. As to the kind of experiment: Inhibition of DNA binding activity of NF-kappaB cRel (1-307) C27S mutant.
In data set [19] the target is T3, Nuclear factor NF-kappa-B p100 subunit (Homo sapiens) (UniProt Q00653).
T3 sequence (whole entry): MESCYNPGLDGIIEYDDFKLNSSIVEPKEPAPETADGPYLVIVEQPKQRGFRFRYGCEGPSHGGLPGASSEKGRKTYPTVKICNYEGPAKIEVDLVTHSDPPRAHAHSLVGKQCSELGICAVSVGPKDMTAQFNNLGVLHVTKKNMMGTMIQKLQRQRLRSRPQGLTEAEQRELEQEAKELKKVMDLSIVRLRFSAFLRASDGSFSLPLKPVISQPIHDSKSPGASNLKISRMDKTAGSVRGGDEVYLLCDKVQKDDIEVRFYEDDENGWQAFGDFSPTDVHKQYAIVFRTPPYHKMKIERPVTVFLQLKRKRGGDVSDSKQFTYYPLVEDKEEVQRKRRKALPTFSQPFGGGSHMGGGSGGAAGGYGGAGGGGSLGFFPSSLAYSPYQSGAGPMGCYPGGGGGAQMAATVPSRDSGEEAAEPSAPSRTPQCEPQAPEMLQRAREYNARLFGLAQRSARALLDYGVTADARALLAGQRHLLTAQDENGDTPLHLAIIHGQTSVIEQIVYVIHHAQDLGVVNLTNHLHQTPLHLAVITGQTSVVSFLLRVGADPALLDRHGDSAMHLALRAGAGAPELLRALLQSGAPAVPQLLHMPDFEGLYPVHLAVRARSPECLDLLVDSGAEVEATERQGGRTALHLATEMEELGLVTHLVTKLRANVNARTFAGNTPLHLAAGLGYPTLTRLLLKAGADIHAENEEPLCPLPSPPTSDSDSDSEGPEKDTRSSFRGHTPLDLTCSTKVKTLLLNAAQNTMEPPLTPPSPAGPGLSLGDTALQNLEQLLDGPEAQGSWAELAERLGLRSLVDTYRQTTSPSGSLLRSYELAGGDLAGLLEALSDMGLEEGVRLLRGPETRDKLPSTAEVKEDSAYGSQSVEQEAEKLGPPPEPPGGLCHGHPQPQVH
As to the kind of experiment: Inhibition of DNA binding activity of NF-kappaB p52.

The subject of data set [20] is Transcription factor p65 (Homo sapiens), Q04206 [C38S]. The data set can be described thus: Inhibition of DNA binding activity of NF-kappaB p65 (1-325) C38S mutant by MALDI-TOF MS analysis.
Data set [21] addresses Transcription factor p65 (Homo sapiens) (UniProt Q04206). The data set can be described thus: Inhibition of TNF-alpha-stimulated DNA binding activity of wild type NF-kappaB p65 expressed in HeLa cells at 10 ug/mL by EMSA. Type of data set: cell-based.
Data set [22] has as its system Transcription factor p65 (Homo sapiens), Q04206 [C120S]. The data set can be described thus: Inhibition of DNA binding activity of NF-kappaB p65 (1-325) C120S mutant by MALDI-TOF MS analysis.
Data set [23] in a line: Inhibition of DNA binding activity of wild type NF-kappaB cRel (1-307) by MALDI-TOF MS analysis.

Transcription factor p65 (Homo sapiens), Q04206 [C38S], sequence (Q04206 whole entry C38S): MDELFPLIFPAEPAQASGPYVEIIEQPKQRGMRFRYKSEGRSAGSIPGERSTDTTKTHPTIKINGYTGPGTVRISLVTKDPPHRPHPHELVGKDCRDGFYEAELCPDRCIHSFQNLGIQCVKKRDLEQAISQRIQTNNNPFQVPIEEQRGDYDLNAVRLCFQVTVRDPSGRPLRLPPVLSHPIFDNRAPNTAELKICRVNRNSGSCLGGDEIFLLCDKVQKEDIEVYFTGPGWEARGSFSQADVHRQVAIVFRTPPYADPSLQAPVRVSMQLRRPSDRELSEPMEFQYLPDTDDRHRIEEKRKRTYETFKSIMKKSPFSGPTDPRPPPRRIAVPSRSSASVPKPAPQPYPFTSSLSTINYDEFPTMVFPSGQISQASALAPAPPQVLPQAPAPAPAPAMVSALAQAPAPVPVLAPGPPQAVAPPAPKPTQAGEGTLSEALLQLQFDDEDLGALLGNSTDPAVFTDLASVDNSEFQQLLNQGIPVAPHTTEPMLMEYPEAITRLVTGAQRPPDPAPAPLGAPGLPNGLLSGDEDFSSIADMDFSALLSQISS
Transcription factor p65 (Homo sapiens), Q04206 [C120S], sequence (Q04206 whole entry C120S): as the sequence (Q04206 whole entry C38S) above, with S38C, C120S counted along it
Transcription factor p65 (Homo sapiens), sequence (Q04206 whole entry): as the sequence (Q04206 whole entry C38S) above, with S38C counted along it
Albumin, sequence (P02769 whole entry): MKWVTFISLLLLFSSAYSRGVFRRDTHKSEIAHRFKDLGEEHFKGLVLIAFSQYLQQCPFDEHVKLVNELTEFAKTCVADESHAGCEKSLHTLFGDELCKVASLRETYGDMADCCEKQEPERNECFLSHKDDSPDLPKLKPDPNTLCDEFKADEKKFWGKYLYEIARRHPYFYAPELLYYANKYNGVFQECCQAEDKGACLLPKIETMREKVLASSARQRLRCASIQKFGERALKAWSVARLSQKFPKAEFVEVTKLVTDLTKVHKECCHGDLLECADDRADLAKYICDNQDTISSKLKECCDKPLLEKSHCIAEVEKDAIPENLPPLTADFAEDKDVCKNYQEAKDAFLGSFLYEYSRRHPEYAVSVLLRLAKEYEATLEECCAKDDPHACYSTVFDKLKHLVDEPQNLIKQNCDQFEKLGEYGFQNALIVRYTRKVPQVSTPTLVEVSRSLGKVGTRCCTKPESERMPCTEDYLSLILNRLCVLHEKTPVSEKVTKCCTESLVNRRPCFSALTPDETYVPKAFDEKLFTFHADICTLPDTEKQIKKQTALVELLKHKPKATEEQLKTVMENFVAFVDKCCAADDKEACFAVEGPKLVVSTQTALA

For `O=C(NC1=CC(=O)[C@H]2O[C@H]2[C@H]1O)c1ccccc1O` [DEHYDROXYMETHYLEPOXYQUINOMICIN], the result (in [1]; in [2]; in data set [3]; in data set [5]; with HeLa [6]; in data set [8]) was inactive. The result in data set [15], in [16], in [17], in data set [18], in [19] and in [20] was inactive. The outcome (in the data set on HeLa [4]; in data set [7]; in data set [9]; in data set [10]; in data set [11]; with HeLa [12]) was Active. Further, the outcome in data set [13], in [14], in data set [21], in data set [22] and in [23] was Active. At Albumin, the Activity result is recorded as “Not Active”.
